Data as given in US6770147B2, “METHOD FOR THE PRODUCTION OF SUGAR OR SUGAR-CONTAINING PRODUCTS FROM SUGAR-CONTAINING VEGETABLE RAW MATERIALS, SUGAR AND SUGAR-CONTAINING PRODUCTS MADE BY THE METHOD, AND EXTRACTION SOLUTION FOR USE IN THE METHOD” (Zuckerforschung Tulln Gesellschaft m.b.H., priority 2000, dated 2004).

How the values were obtained:
[1] = tested on: osmotolerant microorganisms; experiment: pH drop of syrup with 60% dry substances during storage at 22° C.; type: cell-based; settings: 350 ppm
Excerpt: A further pH drop is to be avoided or at least delayed by the addition of an agent. The juice is supplemented with rosin acids at a concentration of 200 ppm in the form of a 20% sodium salt solution.

thermophilic bacteria = experiment: pH drop (acid formation) of thermophilic bacteria culture: liquid nutrient medium inoculated with crude juice, 65° C.; type: cell-based, thermophilic bacteria from sugar beet crude juice; settings: Example 9; for pH / ΔpH/h: 0.2 ml solution each added at pH 6.30, 6.28, 6.26, 6.24
Method: A liquid nutrient medium as used in microbiology and including 10 g bactopepton, 5 g meat extract, 5 g yeast extract, 1 g glucose, 1 g K2HPO4, 0.3 g KNO3, 0.1 g MgSO4*7H2O and 0.01 g FeSO4*7H2O per liter distilled water, is sterilized in the usual manner for 20 minutes at 120° C. and inoculated with 20 ml crude juice from large-scale sugar beet extraction in a 500 ml vessel heated at 65° C., with the pH being recorded on a recorder. […]
A liquid nutrient medium as used in Example 1 is inoculated with 40 ml crude juice from a sugar factory per liter, stirred at 65° C. and the pH drop is followed. A solution of 15 mg pure neoabietic acid (99%) per 1.5 ml ethanol is prepared.

**Q.** What does the source list for `C=O` [HCHO, formaldehyde]?
**A.** ph drop ([1]; Observation time 0 days): 0; ph value ([1]; Observation time 0 days): 8.44; ph drop ([1]; Observation time 1 days): 0.39; ph value ([1]; Observation time 1 days): 8.05; ph drop ([1]; Observation time 2 days): 0.48; ph value ([1]; Observation time 2 days): 7.96; ph drop ([1]; Observation time 5 days): 0.67; ph value ([1]; Observation time 5 days): 7.77

**Q.** `CC(C)=C1C=C2CCC3C(C)(C(=O)O)CCCC3(C)C2CC1` (stereo not drawn) [neoabietic acid] was tested. Which “concentration at which the pH drop is stopped” value (thermophilic bacteria; ethanol solution, four additions of 0.2 ml, 40 ml crude juice per liter, 65° C.) did it give?
**A.** 8 mg per liter

**Q.** And the pH (thermophilic bacteria; Time 0 h)?
**A.** 6.90

**Q.** What about the pH (thermophilic bacteria; Time 1 h) of the same compound?
**A.** 6.90

**Q.** What about the ΔpH/h (thermophilic bacteria; Time 1 h) of the same compound?
**A.** 0.00 pH/h

**Q.** What about the pH (thermophilic bacteria; Time 2 h) of the same compound?
**A.** 6.89

**Q.** What about the ΔpH/h (thermophilic bacteria; Time 2 h) of the same compound?
**A.** 0.01 pH/h

**Q.** And the pH (thermophilic bacteria; Time 3 h)?
**A.** 6.87

**Q.** And the ΔpH/h (thermophilic bacteria; Time 3 h)?
**A.** 0.02 pH/h

**Q.** What about the pH (thermophilic bacteria; Time 3.5 h) of the same compound?
**A.** 6.86

**Q.** What about the ΔpH/h (thermophilic bacteria; Time 3.5 h) of the same compound?
**A.** 0.02 pH/h

**Q.** And the pH (thermophilic bacteria; Time 4 h)?
**A.** 6.85

**Q.** And the ΔpH/h (thermophilic bacteria; Time 4 h)?
**A.** 0.02 pH/h

**Q.** What about the pH (thermophilic bacteria; Time 4.5 h) of the same compound?
**A.** 6.82

**Q.** What about the ΔpH/h (thermophilic bacteria; Time 4.5 h) of the same compound?
**A.** 0.06 pH/h

**Q.** What about the pH (thermophilic bacteria; Time 5 h) of the same compound?
**A.** 6.72

**Q.** What about the ΔpH/h (thermophilic bacteria; Time 5 h) of the same compound?
**A.** 0.20 pH/h

**Q.** And the pH (thermophilic bacteria; Time 5.5 h)?
**A.** 6.54

**Q.** And the ΔpH/h (thermophilic bacteria; Time 5.5 h)?
**A.** 0.36 pH/h

**Q.** And the pH (thermophilic bacteria; Time 5.8 h)?
**A.** 6.30

**Q.** And the ΔpH/h (thermophilic bacteria; Time 5.8 h)?
**A.** 0.80 pH/h

**Q.** What about the pH (thermophilic bacteria; Time 6 h) of the same compound?
**A.** 6.24

**Q.** What about the ΔpH/h (thermophilic bacteria; Time 6 h) of the same compound?
**A.** 0.30 pH/h

**Q.** And the pH (thermophilic bacteria; Time 6.5 h)?
**A.** 6.24

**Q.** And the ΔpH/h (thermophilic bacteria; Time 6.5 h)?
**A.** 0.00 pH/h

**Q.** And the pH (thermophilic bacteria; Time 7 h)?
**A.** 6.25

**Q.** What about the ΔpH/h (thermophilic bacteria; Time 7 h) of the same compound?
**A.** −0.02 pH/h

**Q.** What about the pH (thermophilic bacteria; Time 8 h) of the same compound?
**A.** 6.25

**Q.** What about the ΔpH/h (thermophilic bacteria; Time 8 h) of the same compound?
**A.** 0.00 pH/h
